The results in this text go back to article PMC6009919, “Newer human inosine 5′-monophosphate dehydrogenase 2 (hIMPDH2) inhibitors as potential anticancer agents” (Journal of Enzyme Inhibition and Medicinal Chemistry, 2018).

In series [1] the target is T1, hIMPDH2 (Homo sapiens, UniProt P12268).
T1 construct: purchased NovoCIB SAS (Lyon, France)
Description: In vitro hIMPDH2 inhibition assay. The format is biochemical. The following applies: for hIMPDH2 enzyme % Inhibition / inhibition at 10 µM: at 10 µM, ± SD; for inhibition at 10 µM: read-out: hIMPDH2 enzyme % Inhibition; for IC50: triplicate, determined when inhibition >70% at 10 µM, read-out: hIMPDH2 enzyme IC50 (µM) ± SD. How it is done:
The enzyme (hIMPDH2) was purchased from NovoCIB SAS (Lyon, France). […] The assay was performed in a 200 µl final volume in 96-well UV plates (Tarsons, 980040, Tarsons Products Pvt. Ltd., Kolkata, India) with a reaction buffer composed of 100 mM Tris–HCl (pH 8.6), 100 mM KCl and 5 mM DTT, 4% v/v DMSO plus or minus test compound and 0.15 mU of purified hIMPDH2 enzyme per well (from 1.5 mg/ml stock solution). […] The reaction was initiated by the addition of (substrate buffer) 0.2 mM of IMP and 0.2 mM of NAD^+ and the assay was allowed to proceed at 37 °C for 45 min. The generated NADH was measured by reading the absorbance at 340 nm. […] The MPA (10 µM) was used as a positive control and DMSO as a vehicle control. […] Enzyme inhibition and IC50 values were expressed in % inhibition and μM, respectively.

Series [2] deals with MDA-MB-231 (breast adenocarcinoma). Kind of series: Cell viability (MTT assay), MDA-MB-231. The format is cell-based. Particulars: for IC50: MTT, 48-h incubation, triplicate, read-out: Cytotoxicity IC50 (μM) ± SD, MDA-MB-231. As for the experimental part:
(§1) Cancer cell lines such as MDA-MB-231 (breast adenocarcinoma), DU145 (prostate carcinoma) and U87 MG (glioblastoma astrocytoma) were purchased from National Centre for Cell Sciences (NCCS) (Pune, India). Cytotoxic activity of compounds (>80% hIMPDH2 inhibition at 10 μM) was evaluated using colorimetric MTT assay on the above-mentioned cell lines. Briefly, cells were grown in DMEM media supplemented with foetal bovine serum (FBS) 10% and penicillin–streptomycin (50 U/ml, 50 µg/ml) at 37 °C, CO2 (5%) and air (95%). Logarithmically, growing cells were seeded using 96-well plate at different concentrations of the test compounds ranging from 0.01 to 100 μM (seeding density: MDA-MB-231: 10,000 cells/well, DU145: 8000 cells/well, U87 MG: 5000 cells/well). […] Each dilution of test compound was added in triplicate. Following 48-h incubation with the compounds, cells were incubated with MTT reagent (5 mg/ml) for 4 h, and then 100 μl of DMSO was added to dissolve formazan crystals. The absorbance was then measured at 540 nm and 630 nm (background scan) using EPOCH 2 BioTek microplate reader. The IC50 values for the tested compounds were calculated and expressed in μM using mean of triplicate readings.
Background: Formazan colour is commonly taken as a measure of viable cells.

In series [3] the test system is DU145 (prostate carcinoma). Description: Cell viability (MTT assay), DU145. It is filed as cell-based. The following applies: for IC50: MTT, 48-h incubation, triplicate, read-out: Cytotoxicity IC50 (μM) ± SD, DU145. How it is done:
as §1

Series [4] concerns U87 MG (glioblastoma astrocytoma). Description: Cell viability (MTT assay), U87 MG. The format is cell-based. Particulars: for IC50: MTT, 48-h incubation, triplicate, read-out: Cytotoxicity IC50 (μM) ± SD, U87 MG. As for the experimental part:
as §1

Series [5] is described as follows: hPBMC proliferation assay. It is filed as cell-based. The following applies: human, human peripheral blood mononuclear cells (hPBMC), read-out: % cell viability. The text has this:
Higher lipophilicity and masking of the –COOH in 1 could possibly be responsible for this observation since usually acids are prevented from entering in the CNS.[35] […] The possibility of the title compounds behaving as prodrugs could be minute due to the difficulty in hydrolysing the amide linkage inside cells and release of the active form “MPA”.

Where a name gives a salt, the structure may show the parent alone. Read-outs that look alike come from different tables or passages of the source. Some results are limits rather than exact numbers.

A word on the inhibition: it is the relative decrease from the control value, in per cent. Broadly, the IC50 is the midpoint of a concentration-inhibition curve. On to `COc1c(C)c2c(c(O)c1C/C=C(\C)CCC(=O)N[C@H](C)c1ccccc1)C(=O)OC2` [Compound 15], for which, in series [1], the “hIMPDH2 enzyme % Inhibition” value is reported as 73.94 ± 2.84%, the inhibition at 10 µM was more than 70% and the IC50 was 0.82 ± 0.32 µM.
On to `COc1ccc(NC(=O)CC/C(C)=C/Cc2c(O)c3c(c(C)c2OC)COC3=O)cc1` [Compound 28], for which the “hIMPDH2 enzyme % Inhibition” value in series [1] stood at 54.84 ± 1.15%.
For `COc1cccc2c1C(=O)c1c(O)c3c(c(O)c1C2=O)C[C@@](O)(C(=O)CO)C[C@@H]3O[C@H]1C[C@H](N)[C@H](O)[C@H](C)O1` [Doxorubicin HCl, reference compound], the IC50 in series [2] (Homo sapiens, MDA-MB-231) was found to be 0.54 ± 0.08 µM; in series [3] (Homo sapiens, DU-145) it was 0.21 ± 0.06 µM; in series [4] (Homo sapiens, U-87 MG) it was 0.11 ± 0.02 µM.
As to `COc1c(C)c2c(c(O)c1C/C=C(\C)CCC(=O)NCc1ccc3c(c1)OCO3)C(=O)OC2` [Compound 25], the “hIMPDH2 enzyme % Inhibition” value in series [1] was found to be 87.09 ± 4.54%. Further, the IC50 worked out at 0.51 ± 0.08 µM in series [1], 1.86 ± 0.16 µM in series [2], 2.53 ± 0.15 µM in series [3] and 8.16 ± 0.27 µM in series [4].
Consider `COc1c(C)c2c(c(O)c1C/C=C(\C)CCC(=O)NCc1ccccc1Cl)C(=O)OC2` [Compound 16], for which, in series [1], the “hIMPDH2 enzyme % Inhibition” value is recorded as 72.04 ± 1.11%, the inhibition at 10 µM is more than 70% and the IC50 amounted to 0.73 ± 0.06 µM.
For the compound `COc1c(C)c2c(c(O)c1C/C=C(\C)CCC(=O)N[C@@H](C)c1ccccc1)C(=O)OC2` [Compound 14, (S)(E)-6–(4-hydroxy-6-methoxy-7-methyl-3-oxo-1,3-dihydroisobenzofuran-5-yl)-4-methyl-N-(1-phenylethyl)hex-4-enamide], in series [1], the inhibition at 10 µM was 59.1 ± 1.91%.
On the same count and under the same terms, for `COc1c(C)c2c(c(O)c1C/C=C(\C)CCC(=O)NCc1ccncc1)C(=O)OC2` [Compound 21] the value was 57.4 ± 1.02%.
A word on the viability: it is a per cent measure of how many cells are alive, often set against a control. Turning to `COc1c(C)c2c(c(O)c1C/C=C(\C)CCC(=O)O)C(=O)OC2` [Compound 1, Mycophenolic acid, reference compound], the inhibition at 10 µM in series [1] turned out to be 99.9 ± 1.2%. The IC50 was determined as 4.38 ± 0.06 µM in series [2] (Homo sapiens, MDA-MB-231); 2.94 ± 0.09 µM in series [3] (Homo sapiens, DU-145); 10.7 ± 0.21 µM in series [4] (Homo sapiens, U-87 MG). Moreover, the viability in series [5] turned out to be 63%.
As for `COc1ccc(CNC(=O)CC/C(C)=C/Cc2c(O)c3c(c(C)c2OC)COC3=O)cc1` [Compound 18], the inhibition at 10 µM in series [1] came to 96.1 ± 2.51%. For the same compound, the IC50 in series [1] was determined as 0.33 ± 0.11 µM; in series [2] (Homo sapiens, MDA-MB-231), 2.42 ± 0.11 µM; in series [3] (Homo sapiens, DU-145), 1.8 ± 0.07 µM; in series [4] (Homo sapiens, U-87 MG), 5.26 ± 0.18 µM.
Consider `COc1c(C)c2c(c(O)c1C/C=C(\C)CCC(=O)NCc1ccc(Cl)cc1)C(=O)OC2` [Compound 20], for which the “hIMPDH2 enzyme % Inhibition” value in series [1] came out at 81.36 ± 1.95%. Moreover, the IC50 turned out to be 0.57 ± 0.11 µM in series [1], 4.1 ± 0.23 µM in series [2], 2.69 ± 0.11 µM in series [3] and 7.31 ± 0.17 µM in series [4].
As to `COc1c(C)c2c(c(O)c1C/C=C(\C)CCC(=O)NCCCCc1ccccc1)C(=O)OC2` [Compound 24], the “hIMPDH2 enzyme % Inhibition” value in series [1] stood at 93.62 ± 3.17%. In addition, the IC50 in series [1] amounted to 0.48 ± 0.02 µM; in series [2] (Homo sapiens, MDA-MB-231) it was 1.46 ± 0.07 µM; in series [3] (Homo sapiens, DU-145), 1.09 ± 0.02 µM; in series [4] (Homo sapiens, U-87 MG), 3.35 ± 0.09 µM. In addition, the “potency relative to MPA, DU145” value in series [3] (fold vs MPA) is “three-fold higher potency than MPA”. Further, the “potency relative to MPA, U87 MG” value in series [4] (fold vs MPA) is on record as “three-fold more active than MPA”. Besides, the viability in series [5] was determined as 65%.
With `COc1c(C)c2c(c(O)c1C/C=C(\C)CCC(=O)NCc1ccccn1)C(=O)OC2` [Compound 22], in series [1], the inhibition at 10 µM is 59.4 ± 1.81%.
As for `COc1c(C)c2c(c(O)c1C/C=C(\C)CCC(=O)NCc1ccccc1C)C(=O)OC2` [Compound 23], in series [1], the inhibition at 10 µM was 84 ± 2.13%. Besides, the half-inhibitory concentration (IC50) was 0.5 ± 0.18 µM in series [1]; 0.77 ± 0.04 µM in series [2] (Homo sapiens, MDA-MB-231); 1.28 ± 0.04 µM in series [3] (Homo sapiens, DU-145); 4.66 ± 0.07 µM in series [4] (Homo sapiens, U-87 MG). In series [2] (fold vs MPA), the “potency relative to MPA, MDA-MB-231” value is recorded as “five-fold more potent than MPA”.
As for `COc1c(C)c2c(c(O)c1C/C=C(\C)CCC(=O)NCc1ccco1)C(=O)OC2` [Compound 17], the “hIMPDH2 enzyme % Inhibition” value in series [1] was determined as 67.18 ± 4.16%.
Take `COc1c(C)c2c(c(O)c1C/C=C(\C)CCC(=O)NCc1ccc(C)cc1)C(=O)OC2` [Compound 19]: in series [1], the inhibition at 10 µM came out at 73.4 ± 3.62% and the half-maximal inhibitory concentration (IC50) is 0.6 ± 0.13 µM.
In the case of `COc1cccc(NC(=O)CC/C(C)=C/Cc2c(O)c3c(c(C)c2OC)COC3=O)c1` [Compound 27, (E)-6–(4-hydroxy-6-methoxy-7-methyl-3-oxo-1,3-dihydroisobenzofuran-5-yl)-N-(3-methoxyphenyl)-4-methylhex-4-enamide], the inhibition at 10 µM in series [1] was found to be 30.8 ± 2.82%.
As for `COc1c(C)c2c(c(O)c1C/C=C(\C)CCC(=O)NCCN1CCOCC1)C(=O)OC2` [Compound 26], in series [1], the inhibition at 10 µM stood at 36 ± 3.86%.
